Where a SMILES comes first, the peptide text is derived from it. Where no end group is shown, it is not given here. The star is where a group is joined. Hexanoyl = CCCCCC(=O)* A value given as a limit tells only on which side of the number the result lay.

In assay [1] the target is T1, human VPAC2 (Homo sapiens, UniProt P41587).
T1 construct: expressed in transfected cells
T1 sequence (P41587 24-438): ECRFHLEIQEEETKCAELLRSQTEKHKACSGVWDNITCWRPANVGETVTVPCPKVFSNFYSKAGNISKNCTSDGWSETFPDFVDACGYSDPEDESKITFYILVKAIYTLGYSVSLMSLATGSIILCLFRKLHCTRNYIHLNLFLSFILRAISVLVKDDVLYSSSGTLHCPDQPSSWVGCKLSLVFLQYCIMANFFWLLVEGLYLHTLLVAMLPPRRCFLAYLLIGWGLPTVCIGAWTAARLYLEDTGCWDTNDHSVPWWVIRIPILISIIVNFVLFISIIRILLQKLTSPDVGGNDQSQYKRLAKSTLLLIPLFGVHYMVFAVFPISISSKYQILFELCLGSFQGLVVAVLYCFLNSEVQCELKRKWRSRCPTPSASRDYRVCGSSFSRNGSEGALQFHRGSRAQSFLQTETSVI
Description: Alpha screen cAMP in vitro potency, human VPAC2 receptor. The format is cell-based. The conditions noted are these: cAMP generation; single result from two analyses performed in a single run; read-out: Human VPAC2 Receptor: Alpha Screen EC50. The procedure: Alpha screen: Cells are washed in the culture flask once with PBS. Then, the cells are rinsed with enzyme free dissociation buffer. The dissociated cells are removed. The cells are then spun down and washed in stimulation buffer. For each data point, 50,000 cells suspended in stimulation buffer are used. To this buffer, Alpha screen acceptor beads are added along with the stimuli. This mixture is incubated for 60 minutes. Lysis buffer and Alpha screen donor beads are added and are incubated for 60 to 120 minutes. The Alpha screen signal (indicative of intracellular cAMP levels) is read in a suitable instrument (e.g. AlphaQuest from Perkin-Elmer). Steps including Alpha screen donor and acceptor beads are performed in reduced light.

The next assay addresses T2, human VPAC1 (Homo sapiens, UniProt P32241).
T2 sequence (P32241 31-457): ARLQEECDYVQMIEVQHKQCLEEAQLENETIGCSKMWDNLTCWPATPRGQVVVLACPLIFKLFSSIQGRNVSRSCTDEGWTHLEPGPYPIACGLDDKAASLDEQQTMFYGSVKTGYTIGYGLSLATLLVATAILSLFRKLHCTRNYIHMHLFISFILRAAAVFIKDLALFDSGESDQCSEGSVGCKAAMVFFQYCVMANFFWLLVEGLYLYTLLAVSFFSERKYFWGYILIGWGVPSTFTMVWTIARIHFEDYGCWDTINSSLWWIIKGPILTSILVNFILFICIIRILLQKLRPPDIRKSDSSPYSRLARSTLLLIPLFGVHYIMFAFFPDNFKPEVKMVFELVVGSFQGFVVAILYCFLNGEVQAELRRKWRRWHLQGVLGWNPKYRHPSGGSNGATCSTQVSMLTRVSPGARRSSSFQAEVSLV
Description: Filter binding assay, membranes of cells transiently transfected with human VPAC1, 125I-labeled VIP tracer (Table 2). Further details: expressed in transfected cells. The conditions noted are these: read-out: Human VPAC1 Receptor Binding. Here is the method:
(§1) For this assay, the solutions and equipment include:
(§2) Presoak solution: 0.5% Polyethyleneamine in Aqua dest.
(§3) Buffer for flushing filter plates: 25 mM HEPES pH 7.4
(§4) Blocking buffer: 25 mM HEPES pH 7.4; 0.2% protease free BSA
(§5) Assay buffer: 25 mM HEPES pH 7.4; 0.5% protease free BSA
(§6) Dilution and assay plate: PS-Microplate, U form
(§7) Filtration Plate Multiscreen FB Opaque Plate; […] Type B Glasfiber filter
(§8) In order to prepare the filter plates, aspirate the presoak solution by vacuum filtration. Flush the plates twice with 200 μL flush buffer. Add 200 μL blocking buffer to the filter plate. The filter plate is then incubated […] for 1 hour at room temperature.
(§9) Fill the assay plate with 25 μL assay buffer, 25 μL membranes (2.5 μg) suspended in assay buffer, 25 μL compound (agonist) in assay buffer, and 25 μL tracer (about 40000 cpm) in assay buffer. Incubate the filled plate for 1 hour with shaking.
(§10) Conduct the transfer from assay plate to filter plate. Aspirate the blocking buffer by vacuum filtration and wash two times with flush buffer. Transfer 90 μL from the assay plate to the filter plate. Aspirate the 90 μL transferred from assay plate and wash three times with 200 μL flush buffer. Remove the plastic support. Dry for 1 hour at 60° C. Add 30 μL Microscint. Perform the count.

Assay [2] addresses T1, human VPAC2. Description: Filter binding assay, membranes of stable VPAC2 cell line, 125I-labeled VIP tracer (Table 2). The conditions noted are these: read-out: Human VPAC2 Receptor Binding. Here is the method: as §1, §2, §3, §4, §5, §6, §7, §8, §9, §10
The target in another assay is T3, human PAC1 (Homo sapiens, UniProt P41586).
T3 sequence (P41586 21-468): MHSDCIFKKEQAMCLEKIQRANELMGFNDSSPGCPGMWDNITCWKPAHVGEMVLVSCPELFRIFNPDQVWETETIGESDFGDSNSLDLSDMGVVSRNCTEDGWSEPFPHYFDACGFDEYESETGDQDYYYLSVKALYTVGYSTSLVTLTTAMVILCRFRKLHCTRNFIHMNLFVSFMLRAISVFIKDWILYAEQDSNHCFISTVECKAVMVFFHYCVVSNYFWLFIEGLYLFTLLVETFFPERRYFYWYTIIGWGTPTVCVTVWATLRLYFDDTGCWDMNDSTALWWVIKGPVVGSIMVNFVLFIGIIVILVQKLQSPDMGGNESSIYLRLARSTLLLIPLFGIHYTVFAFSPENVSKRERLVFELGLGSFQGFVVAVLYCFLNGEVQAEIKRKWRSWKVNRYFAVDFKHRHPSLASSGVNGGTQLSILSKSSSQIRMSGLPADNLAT
Briefly: Filter binding assay, membranes of cells transiently transfected with human PAC1, 125I-labeled PACAP-27 tracer (Table 2). Further details: expressed in transfected cells. The note with it: read-out: Human PAC1 Receptor Binding. Here is the method:
as §1, §2, §3, §4, §5, §6, §7, §8, §9, §10

A word on the EC50: it is the concentration that produces a half-maximal response. As to `CCCCCC(=O)N[C@@H](Cc1c[nH]cn1)C(=O)N[C@@H](CO)C(=O)N[C@@H](CC(=O)O)C(=O)N[C@@H](C)C(=O)N[C@H](C(=O)N[C@@H](Cc1ccccc1)C(=O)N[C@H](C(=O)N[C@@H](CC(=O)O)C(=O)N[C@@H](CC(N)=O)C(=O)N[C@@H](Cc1ccc(O)cc1)C(=O)N[C@H](C(=O)N[C@@H](CCCNC(=N)N)C(=O)N[C@@H](CC(C)C)C(=O)N[C@@H](CCCNC(=N)N)C(=O)N[C@@H](CCCCN)C(=O)N[C@@H](CCC(N)=O)C(=O)N[C@H](C(=O)N[C@@H](C)C(=O)N[C@@H](C)C(=O)N[C@@H](CCCCN)C(=O)N[C@@H](CCCCN)C(=O)N[C@@H](Cc1ccc(O)cc1)C(=O)N[C@@H](CC(C)C)C(=O)N[C@@H](CCC(N)=O)C(=O)N[C@@H](CO)C(=O)N[C@H](C(=O)N[C@@H](CCCCN)C(=O)N[C@@H](CCC(N)=O)C(=O)N[C@@H](CCCCN)C(=O)NCC(=O)NCC(=O)N1CCC[C@H]1C(=O)N[C@@H](CO)C(=O)N[C@@H](CO)C(=O)NCC(=O)N[C@@H](C)C(=O)N1CCC[C@H]1C(=O)N1CCC[C@H]1C(=O)N1CCC[C@H]1C(=O)N[C@@H](CO)C(=O)O)[C@@H](C)CC)C(C)C)[C@@H](C)O)[C@@H](C)O)C(C)C` [Agonist P270] (Hexanoyl-HSDAVFTDNYTRLRKQVAAKKYLQSIKQKGGPSSGAPPPS-OH; C-terminus assumed), the EC50 on human VPAC2 [1] stood at 0.13 nM. Moreover, the IC50 worked out at 110 nM at human VPAC1, 0.15 nM at human VPAC2 [2] and 436 nM at human PAC1.
The like results for `CCCCCC(=O)N[C@@H](Cc1c[nH]cn1)C(=O)N[C@@H](CO)C(=O)N[C@@H](CC(=O)O)C(=O)N[C@@H](C)C(=O)N[C@H](C(=O)N[C@@H](Cc1ccccc1)C(=O)N[C@H](C(=O)N[C@@H](CC(=O)O)C(=O)N[C@@H](CC(N)=O)C(=O)N[C@@H](Cc1ccc(O)cc1)C(=O)N[C@H](C(=O)N[C@@H](CCCNC(=N)N)C(=O)N[C@@H](CC(C)C)C(=O)N[C@@H](CCCNC(=N)N)C(=O)N[C@@H](CCCCN)C(=O)N[C@@H](CCC(N)=O)C(=O)N[C@H](C(=O)N[C@@H](C)C(=O)N[C@@H](C)C(=O)N[C@@H](CCCCN)C(=O)N[C@@H](CCCCN)C(=O)N[C@@H](Cc1ccc(O)cc1)C(=O)N[C@@H](CC(C)C)C(=O)N[C@@H](CCC(N)=O)C(=O)N[C@@H](CO)C(=O)N[C@H](C(=O)N[C@@H](CCCCN)C(=O)N[C@@H](CC(N)=O)C(=O)NCC(=O)N[C@@H](CCCNC(=N)N)C(=O)N1CCC[C@H]1C(=O)N[C@@H](CO)C(=O)N[C@@H](CO)C(=O)NCC(=O)N[C@@H](C)C(=O)N1CCC[C@H]1C(=O)N1CCC[C@H]1C(=O)N1CCC[C@H]1C(=O)N[C@@H](CO)C(=O)O)[C@@H](C)CC)C(C)C)[C@@H](C)O)[C@@H](C)O)C(C)C` [Agonist P271] (Hexanoyl-HSDAVFTDNYTRLRKQVAAKKYLQSIKNGRPSSGAPPPS-OH; C-terminus assumed) were, in that order, 0.12 nM, 67.6 nM, 0.14 nM and 352 nM.
On to “Hexanoyl-HSDAVFTDNYTKLKKQVAAKKYLQSIKNKKYGGPSSGAPPPS [Agonist P103]”, for which the EC50 at human VPAC2 [1] was determined as 0.12 nM. The figures for the IC50 at human VPAC1, on human VPAC2 [2] and on human PAC1 were 228 nM, 0.08 nM and 333 nM, respectively.
In the same order, the values of “Hexanoyl-HSDAVFTDNYTRLKAQVAAKKYLQSIKNKRYGGPSSGAPPPS [Agonist P141]” are 0.72 nM, 25.9 nM, 0.64 nM and 658 nM.
In the same order, the values of “Hexanoyl-HSDAVFTDNYTRLLAKLALQKYLQSIKNKRYGGPSSGAPPPC [Agonist P164]” are 0.11 nM, over 3000 nM, 2.46 nM and 9370 nM.
The like results for “Hexanoyl-HSDAVFTDNYTRLLAKVALQKYLQSIKNKRYGGPSSGAPPPS [Agonist P196]” were, in that order, 0.23 nM, 453 nM, 0.85 nM and over 25000 nM.
Regarding “Hexanoyl-HSDAVFTDNYTRLLAQLALQKYLQSIKNKRYGGPSSGAPPPS [Agonist P195]”, the EC50 at human VPAC2 [1] amounted to 0.25 nM. Besides, the IC50 was over 3000 nM at human VPAC1, 2.34 nM on human VPAC2 [2] and 139 nM at human PAC1.
In the same order, the values of “Hexanoyl-HSDAVFTDNYTRLRKQVAAKKFLQSIKNKRYGGPSSGAPPPS [Agonist P130]” are 0.77 nM, 233 nM, 0.43 nM and 444 nM.
“Hexanoyl-HSDAVFTDNYTRLRKQVAAKKWLQSIKNKRYGGPSSGAPPPS [Agonist P129]”: the EC50 on human VPAC2 [1] worked out at 0.49 nM. For the same compound, the IC50 on human VPAC1 came to 462 nM; at human VPAC2 [2] it was 0.38 nM; at human PAC1, 678 nM.
In the case of “Hexanoyl-HSDAVFTDNYTRLRKQVAAKKYLQFIKNKRYGGPSSGAPPPS [Agonist P112]”, the concentration for a half-maximal effect (EC50) on human VPAC2 [1] is 0.16 nM. Further, the IC50 worked out at 193 nM at human VPAC1, 0.49 nM on human VPAC2 [2] and 164 nM on human PAC1.
As to “Hexanoyl-HSDAVFTDNYTRLRKQVAAKKYLQIIKNKRYGGPSSGAPPPS [Agonist P113]”, on human VPAC2 [1], the EC50 came out at 0.26 nM. The IC50 on human VPAC1 came out at 293 nM; at human VPAC2 [2], 0.69 nM; on human PAC1, 189 nM.
The like results for “Hexanoyl-HSDAVFTDNYTRLRKQVAAKKYLQLIKNKRYGGPSSGAPPPS [Agonist P114]” were, in that order, 0.14 nM, 171 nM, 0.56 nM and 188 nM.
The like results for “Hexanoyl-HSDAVFTDNYTRLRKQVAAKKYLQNIKNKRYGGPSSGAPPPS [Agonist P125]” were, in that order, 0.14 nM, 179 nM, 0.19 nM and 300 nM.
On to “Hexanoyl-HSDAVFTDNYTRLRKQVAAKKYLQQIKNKRYGGPSSGAPPPS [Agonist P124]”, for which the EC50 at human VPAC2 [1] was 0.09 nM. Besides, the IC50 is 211 nM on human VPAC1, 0.2 nM on human VPAC2 [2] and 264 nM on human PAC1.
Turning to “Hexanoyl-HSDAVFTDNYTRLRKQVAAKKYLQSIKNKKGGPSSGAPPPS [Agonist P121]”, the EC50 on human VPAC2 [1] is 0.1 nM. Further, the IC50 at human VPAC1 is 169 nM; on human VPAC2 [2], 0.19 nM; at human PAC1, 253 nM.
The like results for “Hexanoyl-HSDAVFTDNYTRLRKQVAAKKYLQSIKNKRGGPSSGAPPPS [Agonist P123]” were, in that order, 0.12 nM, 166 nM, 0.26 nM and 265 nM.
In the same order, the values of “Hexanoyl-HSDAVFTDNYTRLRKQVAAKKYLQSIKNSRGGPSSGAPPPS [Agonist P122]” are 0.14 nM, 77.6 nM, 0.17 nM and 304 nM.
